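Values below derive from 48-hour exposures of cells grown in 96-well plates, with endpoints linearly interpolated between the two concentrations bracketing the appropriate inhibition level. Definition used: TGI = concentration required for complete inhibition of growth.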
Legend:
Assay in all cases: NCI tumour cell line growth inhibition, 48 h
[1] = tested on: HCT-116 colon
[2] = tested on: U251 CNS
[3] = tested on: HS 578T breast
[4] = tested on: SNB-19 CNS
[5] = tested on: OVCAR-5 ovarian
[6] = tested on: SF-539 CNS
[7] = tested on: M14 melanoma
[8] = tested on: MDA-MB-435
[9] = tested on: NCI-H522 lung
[10] = tested on: UACC-257 melanoma
[11] = tested on: ACHN renal
[12] = tested on: NCI-H460 lung
[13] = tested on: TK-10 renal
[14] = tested on: OVCAR-8 ovarian
[15] = tested on: NCI/ADR-RES ovarian
[16] = tested on: NCI-H23 lung
[17] = tested on: HOP-92 NSCLC
[18] = tested on: HL-60(TB) leukemia
[19] = tested on: SNB-75 CNS
[20] = tested on: OVCAR-4 ovarian
[21] = tested on: HT29 colon
[22] = tested on: RXF 393 renal
[23] = tested on: MALME-3M melanoma
[24] = tested on: IGROV1 ovarian
[25] = tested on: A549 NSCLC
[26] = tested on: NCI-H226 lung
[27] = tested on: MCF7 breast
[28] = tested on: PC-3 prostate
[29] = tested on: 786-0 renal
[30] = tested on: HOP-62 NSCLC
[31] = tested on: UO-31 renal
[32] = tested on: KM12 colon
[33] = tested on: SK-MEL-5 melanoma
[34] = tested on: MOLT-4 leukemia
[35] = tested on: COLO 205 colon
[36] = tested on: SN12C renal
[37] = tested on: K-562 leukemia
[38] = tested on: MDA-MB-231 breast
[39] = tested on: SR leukemia
[40] = tested on: CAKI-1 renal
[41] = tested on: SF-295 CNS
[42] = tested on: DU-145 prostate
[43] = tested on: HCT-15 colon
[44] = tested on: SF-268 CNS
[45] = tested on: T-47D breast
[46] = tested on: SW-620 colon
[47] = tested on: SK-MEL-2 melanoma
[48] = tested on: SK-OV-3 ovarian
[49] = tested on: UACC-62 melanoma
[50] = tested on: OVCAR-3 ovarian
[51] = tested on: SK-MEL-28 melanoma

## Clc1ccccc1CN1COc2c(cc(Cl)c3cccnc23)C1
[1]
  TGI: 15.4 µM
[2]
  TGI: 14.1 µM
[3]
  TGI: 23.4 µM
[4]
  TGI: 17.2 µM
[5]
  TGI: 15.1 µM
[6]
  TGI: 10.9 µM
[7]
  TGI: 21.7 µM
[8]
  TGI: 20.9 µM
[9]
  TGI: 15.7 µM
[10]
  TGI: 12.3 µM
[11]
  TGI: 13.4 µM
[12]
  TGI: 27.4 µM
[13]
  TGI: 26.5 µM
[14]
  TGI: 13.9 µM
[15]
  TGI: 1.74 µM
[16]
  TGI: 13.2 µM
[17]
  TGI: 23 µM
[18]
  TGI: 8.9 µM
[19]
  TGI: 18.8 µM
[20]
  TGI: 14.2 µM
[21]
  TGI: 36.6 µM
[22]
  TGI: 39.6 µM
[23]
  TGI: 11.1 µM
[24]
  TGI: 23.7 µM
[25]
  TGI: 13.6 µM
[26]
  TGI: 4.09 µM
[27]
  TGI: 86.5 µM
[28]
  TGI: 18.7 µM
[29]
  TGI: 18.9 µM
[30]
  TGI: 18.7 µM
[31]
  TGI: 21.7 µM
[32]
  TGI: 14.6 µM
[33]
  TGI: 5.78 µM
[34]
  TGI: 1.12 µM
[35]
  TGI: 43.2 µM
[36]
  TGI: 0.494 µM
[37]
  TGI: 11.9 µM
[38]
  TGI: 9.33 µM
[39]
  TGI: 4 µM
[40]
  TGI: 24 µM
[41]
  TGI: 16.6 µM
[42]
  TGI: 21 µM
[43]
  TGI: 10.9 µM
[44]
  TGI: 46.5 µM
[45]
  TGI: > 100 µM
[46]
  TGI: 21 µM
[47]
  TGI: 26.1 µM
[48]
  TGI: 21.2 µM
[49]
  TGI: 3.8 µM
[50]
  TGI: 26.4 µM
[51]
  TGI: 25.9 µM

Source: PubChem BioAssay (NCI)
